In a melting point compilation (Tetko et al.) one finds melting point data, which are given here for 109 compounds.

One may read the melting point as the temperature of the solid-liquid transition.

For `ClCc1ccc(Cl)c(Cl)c1`, the melting point was found to be 37.5 °C.
Next, `O=c1oc2ccccc2c(O)c1C1CC(c2ccc(-c3ccc(Br)cc3)cc2)Cc2ccccc21` (centres undefined): 230 °C.
The figure for `CCO[Si](c1ccccc1)(c1ccccc1)c1ccccc1` is 65 °C; for `O=C(NC1CCN(Cc2ccccc2)C1)C(F)(F)F` (centres undefined) it is 71 °C; for `CC1=Nc2ccccc2Sc2c1c(=O)n(-c1ccccc1)c1ccccc21` it is 231 °C.
The figure for `CC(=O)Nc1cc(NS(=O)(=O)C(F)(F)F)c(C)cc1C` is 184 °C; for `Clc1cccc2cc3ccccc3cc12` it is 83.5 °C; for `Cc1ccc(S(=O)(=O)n2cc(C=CC(=O)O)c3ccccc32)cc1` it is 238 to 241 °C.
For `Nc1nnc(C(F)(F)F)s1`, the melting point worked out at 224 °C.
The figure for `O=S(=O)(c1ccc(N=C=S)cc1)c1ccc(N=C=S)cc1` is 187 to 189 °C; for `NC(=S)Nc1cccc([N+](=O)[O-])c1` it is 189 to 190 °C; for `CCOC(=O)c1ccc(NC(=O)C(F)(F)C(F)(F)C(F)(F)C(F)(F)C(F)(F)C(F)(F)C(F)(F)C(F)(F)F)cc1` it is 135 to 137 °C.
With `Cc1ccc2c3c(c4c(c2c1)CCCC4)CCCC3`, the melting point was 93 °C.
The figure for `Cc1onc(-c2c(F)cccc2Cl)c1C#N` is 78 to 81 °C; for `O=[N+]([O-])c1ccc(SCCO)cc1` it is 60 to 61 °C.
Next, `CCSC(SCC)C(O)C(O)C(O)C(O)CO` (centres undefined): 140 to 142 °C; `O=C(c1cccc([N+](=O)[O-])c1)c1nn(-c2ccccc2)/c(=N\Nc2ccccc2)s1`: 184 °C; `Cc1nn(C)c(C)c1S(=O)(=O)Cl`: 39 to 42 °C.
The compound `O=C(N[C@@H](Cc1ccc(F)cc1)C(=O)O)OCC1c2ccccc2-c2ccccc21` came in with a melting point of 185 °C.
Next, `CCC(=O)c1ccc(N)cc1`: 140 °C.
The compound `OCc1ccc2nsnc2c1` registered a melting point of 58 to 63 °C.
Compound `CC(=O)c1ccc(C#Cc2ccccc2)cc1` came in with a melting point of 101 °C.
In the case of `N#CN=C(Oc1ccccc1)Oc1ccccc1`, the melting point is 157 °C.
The figure for `CN(C)S(=O)(=O)N(SC(F)(Cl)Cl)c1ccccc1` is 106 °C.
Next, `Cc1nccn1-c1ccc(N)cc1`: 112 to 113 °C; `CC12CCC(=O)CC1CCC1C2CCC2(C)C1CCC2(C)O` (centres undefined): 192 °C; `O=S(=O)(Cl)c1cc(Cl)c(Cl)s1`: 56 °C.
Next, `CN1C(=O)Cc2cc(N)ccc21`: 109 to 112 °C; `CC12CCC(C(O)=CC1=O)C2(C)C` (centres undefined): 221 °C; `O=C(O)COc1cccc2ccccc12`: 196 °C.
`Cn1cc(Cl)c(C=O)n1` came in with a melting point of 82 °C.
Next, `COC(=O)c1csc(C=O)c1`: 115 °C.
Next, `CCCCCCCCN(CCCCCCCC)CCCCCCCC`: 34 °C.
Next, `NC(=O)C1(N2CCCCC2)CCNCC1`: 129 to 132 °C; `CCCCCCCCC(O)CCCCCCCC`: 61 °C; `O=C1OC(O)c2c(Cl)c(Cl)c(Cl)c(Cl)c21` (centres undefined): 240 to 248 °C.
For `CN(N)c1c(N(C)N)c(=O)c1=O`, the melting point was 201 to 202 °C.
`O=C1c2ccccc2C2NCCCN12` (centres undefined) gave a melting point of 130 to 132 °C.
`CC(=O)Nc1ccc(Br)cc1C(=O)O` registered a melting point of 223 °C.
The figure for `COc1cc2c(cc1OC)C(c1ccccc1)N(C(C)=O)CC2` (centres undefined) is 195 to 197 °C.
The figure for `CC1=C(C#N)C(c2cccc([N+](=O)[O-])c2)C(C(=O)OCCN(C)C)=C(C)N1` (centres undefined) is 72 to 73 °C; for `CC1=C(O)C(=O)CC(C)(C)C1` it is 89 °C; for `CCOC(=O)c1cc(-c2ccccc2)n(-c2ccccc2)c1C` it is 97 °C.
Next, `COCc1ccc(O)c([N+](=O)[O-])c1`: 123 °C.
`CC1(C)OC(=O)C(=Cc2ccc(Cl)cc2Cl)C(=O)O1` returned a melting point of 156 °C.
The figure for `CS(=O)(=O)c1cc(C(F)(F)F)ccc1C(=O)c1cnoc1C1CC1` is 140 °C.
Compound `CC(C)C1=CCC2C(=C1)CCC1C(C)(C(=O)O)CCCC21C` (centres undefined) displayed a melting point of 150 °C.
The figure for `Cc1c(C(=O)O)sc2ccc(Cl)cc12` is 290 to 292 °C; for `NC(=NO)c1ccccc1OC(F)(F)F` it is 99 to 101 °C; for `Nc1cc(Cl)ccc1[N+](=O)[O-]` it is 128 °C.
The figure for `OCC1OC(Oc2ccc(O)cc2)C(O)C(O)C1O` (centres undefined) is 200 °C; for `CNC(=O)Oc1cc(C(C)(C)C)cc(C(C)(C)C)c1` it is 103 °C.
Next, `CN(C)c1ccccc1[N+](=O)[O-]`: -20 °C; `NC(N)=Nc1nc(CSCCC(N)=NS(N)(=O)=O)cs1`: 163 °C.
On to `O=C(O)CNC(=O)CCl`, for which the melting point was 102 °C.
Next, `CCOc1ccc(-c2nnc3sc(-c4ccc(Cl)cc4)nn23)cc1`: 113 °C; `O=C(CCc1ccc(O)cc1)ON1C(=O)CCC1=O`: 133 to 135 °C.
Take `N#CC1OCC(OC(=O)c2ccccc2)C(OC(=O)c2ccccc2)C1OC(=O)c1ccccc1` (centres undefined): the melting point is 155 °C.
The figure for `COc1ccc([N+](=O)[O-])cn1` is 108 °C; for `CC(=O)Nc1cc(N=Nc2ccccc2)c(C)c(NC(C)=O)c1` it is 255 °C.
`CCCCCCCCCCCCCCCCCCOO`: the melting point amounted to 49.5 °C.
The figure for `CCC1CN2CCC1CC2C(O)c1ccnc2ccc(OC)cc12` (centres undefined) is 172 °C; for `CCCCCCCCCCCC(C)=O` it is 30.5 °C.
Next, `Cn1ncc2cc([N+](=O)[O-])ccc21`: 160 °C; `Clc1cc(N2CCCCC2)ncn1`: 79 °C.
`C/C=C/C(=O)O` displayed a melting point of 72 °C.
Take `CC(C#N)c1ccccc1[N+](=O)[O-]` (centres undefined): the melting point was 51 °C.
Next, `NC(=O)Nc1ccccc1`: 147 °C; `CCOC(=O)c1cc2c(N)c(C(=O)OCC)sc2nc1C(F)(F)F`: 181 to 183 °C.
Compound `O=c1nn[nH]c2ccccc12` displayed a melting point of 223 °C.
`O=Cc1ccc(N2CCOCC2)cc1` gave a melting point of 66 °C.
`O=C1CCC2C3CCC(=O)C3C12` (centres undefined) had a melting point of 65 to 69 °C.
Next, `O=C(O)Cc1cc(O)ccc1O`: 153 °C; `C[C@]12C=CC(=O)C=C1C(=O)C[C@@H]1[C@@H]2CC[C@@]2(C)[C@H]1CCC21OCCO1`: 207 °C.
In turn, `Nc1ncc(F)cc1F` yielded a melting point of 57 °C.
Next, `O=S(=O)(Cl)c1cc(Br)ccc1Br`: 71 °C.
Next, `CC(=O)N1C(=O)[C@@](O)(c2coc3ccccc23)c2ccccc21`: 110 °C; `CCOC(=O)c1cccnc1-c1ncccc1C(=O)OCC`: 90 °C; `CCCCCCCCCCCCCCOCCOCCOCCOCCOCCOCCO`: 32.5 °C.
The figure for `O=C(Cl)c1cnn(-c2ccccc2)c1C(F)(F)F` is 40 to 41 °C.
In turn, `CC(=O)C1(O)CCC2(C)C(CCC3C2CCC2(C)C3CCC23OCCO3)C1` (centres undefined) returned a melting point of 182 to 190 °C.
The figure for `Ic1cc(I)c(I)cc1I` is 254 °C; for `Nc1c(C=NNc2ccccc2)ccc2c1C(=O)c1ccccc1C2=O` it is 209 to 211 °C; for `O=C(NC(=S)Nc1ccccn1)c1ccccc1` it is 144 to 147 °C.
With `NC(=O)C(CCN1CCCCCC1)(c1ccccc1)c1ccccc1`, the melting point is 142 °C.
As to `Cn1nc(-c2ccccc2)cc1C(=O)O`, the melting point was in the range of 186 to 187 °C.
The figure for `Cc1ccc(C)c2c1C(=O)OC2=O` is 195 °C; for `O=C1c2ccccc2CC2c3ccccc3CCN12` (centres undefined) it is 173 °C; for `O=C(O)/C=C/c1ccc2ccc(=O)[nH]c2c1` it is 330 °C.
Next, `CN(C)c1ccn2c(=O)c3ccccc3cc2c1`: 157 °C; `Fc1cc(F)c(Br)c(F)c1`: 4 °C; `Cc1noc(-c2ccc(C(=O)O)cc2)n1`: 267 to 269 °C.
On to `Cc1cc(C)c([N+](=O)[O-])c(C)c1[N+](=O)[O-]`, for which the melting point was determined as 85.3 °C.
Next, `Oc1ccnc2cc(C(F)(F)F)ccc12`: 266 to 270 °C.
Next, `CCOC(=O)C1(c2ccccc2)CCN(C)CC1`: 270 °C.
For the compound `C(=CC=Cc1ccccc1)C=Cc1ccccc1`, the melting point lay within 199 to 203 °C.
The figure for `Cc1ccc(C)n1CC1CCNCC1` is 50 °C.
For the compound `COc1cc(C=O)ccc1OC1OC(CO)C(O)C(O)C1O` (centres undefined), the melting point is 189 °C.
`Cc1nc2ccccc2c(C(=O)O)c1C(=O)O` yielded a melting point of 225 to 233 °C.
In turn, `O=S(=O)(Cl)c1c(Cl)cc(C(F)(F)F)cc1Cl` displayed a melting point of 48 °C.
The figure for `CCCCCCC(O)CCCCC` (centres undefined) is 30 °C.
With `CCOC(=O)c1cc2cc(C(F)(F)F)c(C(F)(F)F)cc2c(=O)o1`, the melting point worked out at 193 °C.
Take `Cc1nc(CC(=O)O)c(C)s1`: the melting point lay in the range of 110 to 113 °C.
Next, `Cc1cc(C(F)(F)F)n2nc(N)c(/N=N/c3cccc4ccccc34)c2n1`: 236 °C; `CCOC(=O)C1=C(C)OC(N)=C(c2nc3ccccc3s2)C1c1ccc(Cl)cc1` (centres undefined): 189 °C.
The compound `Cc1cc(=O)[nH]cc1Br` came in with a melting point of 196 to 201 °C.
Next, `CCCCOc1ccc(-c2nnc3sc(/C=C/c4ccccc4)nn23)cc1`: 79 to 81 °C; `c1cnc2nccnc2c1`: 143 °C; `CC1OC(=O)C2CC3CCCCC3C(C=CC3CCCC(C)N3C)C12` (single isomer, unassigned; (+)): 130 to 136 °C.
